Results as given in the Kinase Knowledgebase extract (Sharma et al. 2016).

What was measured:
PIK3CA (human) [1] = target: PIK3CA (human) (UniProt P42336); assay: Inhibition of A2780 Cell Proliferation
PIK3CA (human) [2] = target: PIK3CA (human) (UniProt P42336); assay: Inhibition of PIK3CA Kinase Activity
PIK3CA (human) [3] = target: PIK3CA (human) (UniProt P42336); assay: Assessment of PIK3CA Kinase Binding Activity
PIK3CG (human) = PIK3CG (human) (UniProt P48736); assay: Assessment of PIK3CG Kinase Binding Activity
PIK3CD (Human) = PIK3CD (Human) (UniProt O00329); assay: Assessment of PIK3CD Kinase Binding Activity
PIK3CB (Human) = PIK3CB (Human) (UniProt P42338); assay: Assessment of PIK3CB Kinase Binding Activity
PIK3CB (Human), sequence (P42338 whole entry, looked up): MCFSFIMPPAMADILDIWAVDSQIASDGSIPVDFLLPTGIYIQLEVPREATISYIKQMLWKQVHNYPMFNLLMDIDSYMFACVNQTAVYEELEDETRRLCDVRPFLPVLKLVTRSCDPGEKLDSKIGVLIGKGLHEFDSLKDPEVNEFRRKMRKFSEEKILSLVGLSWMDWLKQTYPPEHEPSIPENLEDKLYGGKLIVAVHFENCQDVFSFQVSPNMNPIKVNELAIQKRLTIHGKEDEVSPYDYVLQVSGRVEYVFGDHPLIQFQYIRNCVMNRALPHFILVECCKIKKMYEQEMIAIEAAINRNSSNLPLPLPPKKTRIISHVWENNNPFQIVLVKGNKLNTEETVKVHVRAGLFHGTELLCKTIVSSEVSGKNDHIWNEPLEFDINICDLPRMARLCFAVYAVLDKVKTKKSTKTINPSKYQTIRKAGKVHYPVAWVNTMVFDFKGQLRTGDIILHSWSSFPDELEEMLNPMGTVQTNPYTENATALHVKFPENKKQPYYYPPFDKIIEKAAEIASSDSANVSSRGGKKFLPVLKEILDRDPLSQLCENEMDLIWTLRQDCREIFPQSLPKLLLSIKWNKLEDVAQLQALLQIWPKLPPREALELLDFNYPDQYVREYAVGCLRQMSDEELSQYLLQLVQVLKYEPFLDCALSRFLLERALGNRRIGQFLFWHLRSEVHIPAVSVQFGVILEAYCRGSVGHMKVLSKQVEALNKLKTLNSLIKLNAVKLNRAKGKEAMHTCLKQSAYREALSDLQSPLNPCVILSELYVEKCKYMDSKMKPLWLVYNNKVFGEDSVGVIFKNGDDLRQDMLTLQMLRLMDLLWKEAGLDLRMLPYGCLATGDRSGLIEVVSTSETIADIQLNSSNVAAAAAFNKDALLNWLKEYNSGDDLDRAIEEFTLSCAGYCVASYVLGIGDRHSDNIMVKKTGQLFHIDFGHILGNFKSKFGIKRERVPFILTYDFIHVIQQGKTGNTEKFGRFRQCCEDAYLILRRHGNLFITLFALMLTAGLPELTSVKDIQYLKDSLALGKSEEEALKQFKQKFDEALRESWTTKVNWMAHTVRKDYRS

PIK3CA (human), sequence (P42336 whole entry, looked up): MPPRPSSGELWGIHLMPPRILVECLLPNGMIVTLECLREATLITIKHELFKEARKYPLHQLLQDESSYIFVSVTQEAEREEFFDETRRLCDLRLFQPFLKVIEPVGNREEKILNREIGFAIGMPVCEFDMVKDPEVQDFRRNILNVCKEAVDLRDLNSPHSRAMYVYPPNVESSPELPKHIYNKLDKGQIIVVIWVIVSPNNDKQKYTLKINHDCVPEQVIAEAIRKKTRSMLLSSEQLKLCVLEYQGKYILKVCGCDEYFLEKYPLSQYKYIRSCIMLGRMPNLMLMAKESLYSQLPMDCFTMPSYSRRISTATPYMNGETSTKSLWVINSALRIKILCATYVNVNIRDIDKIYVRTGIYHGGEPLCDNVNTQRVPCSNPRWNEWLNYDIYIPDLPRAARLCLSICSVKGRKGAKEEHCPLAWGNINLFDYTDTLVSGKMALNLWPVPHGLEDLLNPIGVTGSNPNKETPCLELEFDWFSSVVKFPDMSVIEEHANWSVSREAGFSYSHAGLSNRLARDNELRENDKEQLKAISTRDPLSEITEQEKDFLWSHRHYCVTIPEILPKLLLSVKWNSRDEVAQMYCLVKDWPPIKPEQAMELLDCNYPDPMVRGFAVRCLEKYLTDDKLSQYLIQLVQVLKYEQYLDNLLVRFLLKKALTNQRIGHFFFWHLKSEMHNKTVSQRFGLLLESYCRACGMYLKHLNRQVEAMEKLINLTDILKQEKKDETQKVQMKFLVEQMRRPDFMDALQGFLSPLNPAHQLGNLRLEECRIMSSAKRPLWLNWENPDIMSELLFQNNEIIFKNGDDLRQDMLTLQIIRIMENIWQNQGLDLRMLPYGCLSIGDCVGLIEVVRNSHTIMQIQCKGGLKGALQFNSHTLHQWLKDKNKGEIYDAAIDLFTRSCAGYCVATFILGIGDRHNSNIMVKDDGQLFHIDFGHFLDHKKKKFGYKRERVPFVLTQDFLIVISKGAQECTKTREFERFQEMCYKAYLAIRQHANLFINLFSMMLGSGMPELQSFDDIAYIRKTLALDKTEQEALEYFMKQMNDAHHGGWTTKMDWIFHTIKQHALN
PIK3CD (Human), sequence (O00329 whole entry, looked up): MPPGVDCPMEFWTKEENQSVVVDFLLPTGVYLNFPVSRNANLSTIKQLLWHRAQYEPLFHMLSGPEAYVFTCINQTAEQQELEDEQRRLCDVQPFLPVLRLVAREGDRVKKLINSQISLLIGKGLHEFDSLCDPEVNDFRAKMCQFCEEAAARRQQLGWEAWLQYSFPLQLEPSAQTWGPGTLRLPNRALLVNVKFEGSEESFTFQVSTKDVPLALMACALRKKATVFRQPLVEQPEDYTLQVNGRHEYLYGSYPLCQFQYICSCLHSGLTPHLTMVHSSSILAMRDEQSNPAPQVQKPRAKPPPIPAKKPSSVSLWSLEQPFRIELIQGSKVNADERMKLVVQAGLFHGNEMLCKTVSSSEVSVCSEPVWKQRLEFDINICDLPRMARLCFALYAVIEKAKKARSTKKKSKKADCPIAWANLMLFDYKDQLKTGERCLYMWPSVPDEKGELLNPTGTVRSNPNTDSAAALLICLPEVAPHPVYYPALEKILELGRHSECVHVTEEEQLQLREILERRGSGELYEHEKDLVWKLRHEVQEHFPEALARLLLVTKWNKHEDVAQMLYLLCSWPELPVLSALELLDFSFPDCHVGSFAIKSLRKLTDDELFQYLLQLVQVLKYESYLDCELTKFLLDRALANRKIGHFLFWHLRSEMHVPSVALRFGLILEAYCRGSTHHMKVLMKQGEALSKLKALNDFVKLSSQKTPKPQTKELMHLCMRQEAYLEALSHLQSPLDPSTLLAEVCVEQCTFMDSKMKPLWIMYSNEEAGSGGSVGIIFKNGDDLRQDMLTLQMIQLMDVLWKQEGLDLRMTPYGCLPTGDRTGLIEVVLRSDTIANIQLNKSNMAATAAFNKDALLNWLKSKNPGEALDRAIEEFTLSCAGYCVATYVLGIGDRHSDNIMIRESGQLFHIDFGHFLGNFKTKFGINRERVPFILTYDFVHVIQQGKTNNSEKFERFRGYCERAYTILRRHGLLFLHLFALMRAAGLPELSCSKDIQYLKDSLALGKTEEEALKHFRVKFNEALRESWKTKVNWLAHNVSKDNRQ
PIK3CG (human), sequence (P48736 whole entry, looked up): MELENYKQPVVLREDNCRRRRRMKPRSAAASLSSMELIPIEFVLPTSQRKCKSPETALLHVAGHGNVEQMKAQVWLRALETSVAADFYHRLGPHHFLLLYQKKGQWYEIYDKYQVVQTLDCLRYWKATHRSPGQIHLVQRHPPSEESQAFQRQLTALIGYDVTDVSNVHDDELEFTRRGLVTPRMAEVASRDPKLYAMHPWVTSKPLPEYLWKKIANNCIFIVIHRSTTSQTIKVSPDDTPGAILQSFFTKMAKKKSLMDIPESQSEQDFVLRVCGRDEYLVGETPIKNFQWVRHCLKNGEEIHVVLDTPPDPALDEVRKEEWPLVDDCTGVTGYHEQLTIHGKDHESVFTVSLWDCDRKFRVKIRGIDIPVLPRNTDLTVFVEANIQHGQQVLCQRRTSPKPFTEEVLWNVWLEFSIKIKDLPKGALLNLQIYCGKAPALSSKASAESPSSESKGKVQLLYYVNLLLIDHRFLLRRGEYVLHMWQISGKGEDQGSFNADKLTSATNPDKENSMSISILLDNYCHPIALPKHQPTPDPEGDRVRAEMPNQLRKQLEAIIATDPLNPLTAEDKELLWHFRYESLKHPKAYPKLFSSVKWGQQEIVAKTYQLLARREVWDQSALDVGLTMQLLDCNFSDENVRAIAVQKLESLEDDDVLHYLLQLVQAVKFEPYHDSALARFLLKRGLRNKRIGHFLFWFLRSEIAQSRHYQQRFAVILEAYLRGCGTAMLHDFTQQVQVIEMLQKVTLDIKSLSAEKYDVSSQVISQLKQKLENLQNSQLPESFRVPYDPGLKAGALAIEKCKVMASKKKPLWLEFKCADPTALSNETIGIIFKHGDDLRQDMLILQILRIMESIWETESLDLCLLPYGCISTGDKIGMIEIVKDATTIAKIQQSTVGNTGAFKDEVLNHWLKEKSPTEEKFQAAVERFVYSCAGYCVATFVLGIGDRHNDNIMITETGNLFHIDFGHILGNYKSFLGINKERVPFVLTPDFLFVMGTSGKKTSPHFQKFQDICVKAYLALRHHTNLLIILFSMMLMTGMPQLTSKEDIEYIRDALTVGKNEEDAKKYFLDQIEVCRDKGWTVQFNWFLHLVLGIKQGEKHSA

EC50 (PIK3CA (human) [1]) | IC50 (PIK3CA (human) [2]) | Ki (PIK3CA (human) [3]) | Ki (PIK3CG (human)) | Ki (PIK3CD (Human)) | Ki (PIK3CB (Human)) | SMILES
< 10000 nM | < 1000 nM |  |  |  |  | COC(=O)CCCC(=O)Nc1cn2nc(-c3cnc(N)c(C(F)(F)F)c3)ccc2n1
< 10000 nM | < 1000 nM |  |  |  |  | CC(=O)Nc1nc2ccc(-c3cnc(N)c(C(F)(F)F)c3)c(C)c2s1
< 10000 nM | < 1000 nM |  |  |  |  | NC(=O)Nc1cn2cc(-c3cnc(N)c(C(F)(F)F)c3)ccc2n1
 |  | < 10000 nM | < 1000 nM | < 1000 nM | < 1000 nM | CC(C)n1nnc(CCNC(=O)Nc2cn3cc(-c4ccc(N)nc4)ccc3n2)n1
< 10000 nM | ≥ 25000 nM |  |  |  |  | COc1cc(-c2ccc3nc(NC(C)=O)cn3c2)c(C)nc1N
< 1000 nM | < 1000 nM |  |  |  |  | CC(=O)Nc1cn2cc(-c3cnc(N)c(Oc4cccnc4)n3)ccc2n1
 |  | < 1000 nM | < 1000 nM | < 1000 nM | < 1000 nM | CCc1nnn(CCNC(=O)Nc2cn3cc(-c4cnc(N)c(C(F)(F)F)c4)ccc3n2)n1
< 10000 nM | < 1000 nM |  |  |  |  | NC(=O)[C@@H]1CCCN1C(=O)Nc1nc2ccc(-c3cnc(N)c(C(F)(F)F)c3)cc2s1
< 10000 nM | < 1000 nM |  |  |  |  | CCNN=Cc1cc(-c2ccc3nc(NC(C)=O)cn3c2)cnc1N
< 10000 nM | < 1000 nM |  |  |  |  | Nc1ncc(-c2ccc3nc(NC(=O)[C@H]4CCCCN4)cn3c2)cc1C(F)(F)F
< 25000 nM | < 10000 nM |  |  |  |  | Nc1ncc(-c2ccc3nc(NC(=O)C(F)(F)F)cn3c2O)cc1C(F)(F)F
< 10000 nM | < 1000 nM |  |  |  |  | CCN(CC)C(=O)c1cc(-c2ccc3nc(NC(C)=O)cn3c2)cnc1N
< 25000 nM | < 1000 nM |  |  |  |  | CC(=O)Nc1nc2ccc(-c3cnc(N)c(C(F)(F)F)c3)cn2c1-c1ccc(C(N)=O)cc1
< 1000 nM | < 1000 nM |  |  |  |  | CC(=O)Nc1cn2nc(-c3cnc(N)c(-c4ccccc4C(F)(F)F)c3)ccc2n1
< 10000 nM | < 1000 nM |  |  |  |  | CC(=O)Nc1cn2cc(-c3cnc(N)c(-c4cccc(F)c4)c3)ccc2n1
< 1000 nM | < 1000 nM |  |  |  |  | CC(=O)Nc1cn2nc(-c3cnc(N)c(Cl)c3)ccc2n1
< 10000 nM | < 1000 nM |  |  |  |  | Nc1ncc(-c2ccc3nc(NC(=O)CCCn4ccnc4)cn3c2)cc1C(F)(F)F
< 25000 nM | < 10000 nM |  |  |  |  | CC(C)(C(=O)Nc1cn2cc(-c3cnc(N)c(C(F)(F)F)c3)ccc2n1)c1ccccc1
< 10000 nM | < 1000 nM |  |  |  |  | COC(=O)Nc1nc2ccc(-c3ccc(N)nc3)cc2s1

EC50 (PIK3CA (human) [1]) | IC50 (PIK3CA (human) [2]) | Ki (PIK3CA (human) [3]) | Ki (PIK3CG (human)) | Ki (PIK3CD (Human)) | Ki (PIK3CB (Human)) | SMILES
< 10000 nM | < 1000 nM |  |  |  |  | CNC(=O)Nc1nc2ccc(-c3ccc(N)nc3)cc2s1
< 10000 nM | < 1000 nM |  |  |  |  | CC(=O)Nc1cn2cc(-c3ccc(N)nc3F)ccc2n1
< 25000 nM | < 1000 nM |  |  |  |  | Nc1ccc(-c2ccc3nc(NC(=O)CN4CCOCC4)sc3c2)cn1
< 25000 nM | < 1000 nM |  |  |  |  | Nc1ccc(-c2ccc3nc(NC(=O)OCCN4CCOCC4)sc3c2)cn1
< 10000 nM | < 1000 nM |  |  |  |  | CC(=O)Nc1nc2ccc(-c3cnc(N)c(Br)c3)cn2c1Br
< 25000 nM | < 1000 nM |  |  |  |  | N#Cc1ccc(C(=O)Nc2cn3cc(-c4cnc(N)c(C(F)(F)F)c4)ccc3n2)cc1
< 10000 nM | < 1000 nM |  |  |  |  | NCCC(=O)Nc1cn2nc(-c3cnc(N)c(C(F)(F)F)c3)ccc2n1
< 1000 nM | < 1000 nM |  |  |  |  | CC(C)(C)OC(=O)N1CC[C@H](OCC(=O)Nc2cn3nc(-c4cnc(N)c(C(F)(F)F)c4)ccc3n2)C1
< 25000 nM | < 1000 nM |  |  |  |  | CC(=O)Nc1nc2ccc(-c3cnc(N)cc3C)cc2s1
< 10000 nM | < 1000 nM |  |  |  |  | CC(=O)Nc1cn2cc(-c3cnc(N)c(-c4ccccc4)c3)ccc2n1
< 10000 nM | < 1000 nM |  |  |  |  | CCOCC(=O)Nc1cn2cc(-c3cnc(N)c(C(F)(F)F)c3)ccc2n1
< 10000 nM | < 1000 nM |  |  |  |  | CC(C)(C)OC(=O)N1CCC(OCC(=O)Nc2cn3cc(-c4cnc(N)c(C(F)(F)F)c4)ccc3n2)CC1
< 1000 nM | < 1000 nM |  |  |  |  | NCC(=O)Nc1cn2nc(-c3cnc(N)c(C(F)(F)F)c3)ccc2n1
< 10000 nM | < 10000 nM |  |  |  |  | NC(=O)N1CCC[C@H]1C(=O)Nc1cn2cc(-c3cnc(N)c(C(F)(F)F)c3)ccc2n1
< 10000 nM | < 1000 nM |  |  |  |  | C[C@H](N)C(=O)Nc1cn2nc(-c3cnc(N)c(C(F)(F)F)c3)ccc2n1
< 10000 nM | < 1000 nM |  |  |  |  | CC(C)(C)OC(=O)NCCC(=O)Nc1cn2nc(-c3cnc(N)c(C(F)(F)F)c3)ccc2n1
< 1000 nM | < 1000 nM |  |  |  |  | CCN1CCCCC1CCC(=O)Nc1cn2nc(-c3cnc(N)c(C(F)(F)F)c3)ccc2n1 (stereo not given)
< 10000 nM | < 1000 nM |  |  |  |  | COc1cccc(-c2cc(-c3ccc4nc(NC(C)=O)cn4n3)cnc2N)n1
< 10000 nM | < 1000 nM |  |  |  |  | CC(=O)Nc1cn2cc(-c3cnc(N)c(C=O)c3)ccc2n1
